“Also recorded” adds a separate entry of the source.
Assays:
[1] = system: pseudohypoxia genes in H1975 cells; assay: qRT-PCR analysis of hypoxia (pseudohypoxia) gene expression; type: cell-based, human
Description: Transfection by LNAs in vitro. Tumor cells were plated at 2,000 cells in complete growth medium in a 96 well plate to reach 50-60% confluence. 0˜120 nM of fluorescein-conjugated LNA anti-miR-147b (Sequence: […]; SEQ ID NO: 890) (Cat #4100977-011) or negative control (Sequence: TAACACGTCTATACGCCCA; SEQ ID NO: 891) (Cat #199006-011, Exiqon) with PureFection (System Biosciences) were applied for transfection. The transfected cells were harvested after culturing for 48 and 72 hours.

[2] = system: H1975 organoids; assay: Fractional viability of H1975 organoids treated with osimertinib, LNA miR-147b inhibitor, DMOG, R59949 or combinations for 14 days; type: cell-based, human
Description: (§1) For 3D organoid formation, single-cell suspensions (2000 cells/well/20 μl) were co-plated with geltrex (25 μl) in 96-well non-treated clear plates (Corning, cat #08-772-53). The plate was incubated for 20 minutes at 37° C. followed by adding 100 μl complete growth media. The complete growth media was advanced DMEM/F12 with glutamax (1×), HEPES (1×), 1.25 mM N-Acetylcysteine, 10 mM Nicotinamide, 10 μM Forskolin, B27 (1×), 5 ng/ml Noggin, 100 ng/ml FGF10, 20 ng/ml FGF2, 50 ng/ml EGF, 10 ng/ml PDGFA, 10 ng/ml FGF7, 1% penicillin-streptomycin, and 10 μM Y-27632. Y-27632 was used only for the initial three days because Y27632 is a rock inhibitor preventing apoptosis of single cells (Watanabe et al., Nat. Biotechnol. 25(6):681-686, 2007). PDGFA and FGF7 were not used until day 7 in organoid cultures because they are important for alveolarization during late lung development (Padela et al., Pediatr. Res. 63(3):232-8, 2008; Bostrom et al., Cell 85(6):863-873, 1996). FGF10 is essential for maintenance of lung progenitor cells and branching morphogenesis as well as tissue homeostasis in the adult lung (Sekine et al., Nat. Genet. 21(1):138-141, 1999). […] The organoids were photographed with a microscope (Evos Fla., Life Technology) and their size was measured by ImageJ. […]

[3] = system: H1975 cells; assay: Cell viability of osimertinib-treated H1975 cells co-incubated with SDH inhibitor dimethyl malonate; type: cell-based, human; conditions: 100 nM osimertinib co-incubated with 0, 0.03, 0.1 mM DMM for 3 days
Description: (§2) Compound Treatment. Cell viability experiments were performed in 96-well format using opaque white plates (Corning). For 2D monolayer cell cultures and organoids, cells were plated into 96-well plates with 100-2000 cells per well in three-four replicates on day 0. Twenty-four hours after seeding, cells or organoids were exposed to compounds at indicated concentrations for 72 hours. Cellular ATP levels (as a surrogate for viability) were measured using CeliTiter-Glo (Cat #G7570, Promega) or CeliTiter-Glo 3D (Cat #G9681, Promega). For co-treatment experiments, spent medium was removed 24 hours after cell seeding and replaced with medium containing a single concentration of the modulator of interest (for example, osimertinib).

[4] = system: H1975 organoids; assay: Osimertinib treatment response (cell viability) on H1975 organoids transfected with LNA miR-147b inhibitor; type: cell-based, human; conditions: 120 nM LNA miR-147b inhibitor
Description: as §1

[5] = system: PDX_LU_10 organoids; assay: Pretreatment response on lung PDX organoids (organoid size); type: cell-based, human
Excerpt: Patient-derived Xenograft Tumor Specimens. Tumor samples from patient-derived xenografts (PDXs) were generated at The Jackson Laboratory and the Yale Cancer Center by subcutaneous implantation of previously passaged tumors in up to 5 female NSG mice. When tumor samples reached 1000 mm^3 they were shipped to the laboratory in frozen media of DMEM with 90% FBS and 10% DMSO in dry ice. Samples were washed with cold phosphate buffer saline (PBS) with antibiotics (Sigma-Aldrich, St. Louis, Mo.) three times, chopped with a sterile blade, and incubated in 0.001% deoxyribonuclease (DNase) (Sigma-Aldrich, St. Louis, Mo.), 1 mg/ml collagenase/dispase (Roche, Indianapolis, Ind.), 200 U/ml penicillin, 200 μg/ml streptomycin, 0.5 μg/ml amphotericin B (2% antibiotics, Sigma) in DMEM/F12 medium (GIBCO, Grandlsland, N.Y.) at 37° C. water bath for 3 hours with intermittent shaking. After incubation, the suspensions were repeatedly triturated, passed through 70 μm and 40 μm cell-strainers (BD Falcon, San Jose, Calif.), and centrifuged at 122 g for 5 minutes at 4° C. Cells were resuspended in red blood cell lysis buffer (eBioscience, San Diego, Calif.) for 4 minutes at room temperature with intermittent shaking, before resuspension in serum-free medium. After lysis, cell viability was evaluated by trypan blue dye exclusion.
(§3) The plate was incubated for 20 minutes at 37° C. followed by adding 100 μl complete growth media. […] The media was changed every three days in 24 days. The organoids were photographed with a microscope (Evos Fla., Life Technology) and their size was measured by ImageJ.
Transfection by LNAs in vitro. Tumor cells were plated at 2,000 cells in complete growth medium in a 96 well plate to reach 50-60% confluence. […] The transfected cells were harvested after culturing for 48 and 72 hours.

[6] = system: PC9 cells; assay: Single cell clonogenicity / frequency of drug-tolerant clones; conditions: 0.1, 0.4 and 2 μM gefitinib (all three groups), 14 days, vehicle 8.3%±0.7%
[7] = system: HCC827 cells
Description: as §2
(§4) Lentiviral-mediated miRNA and VHL Overexpression or Knockdown Infection.

[8] = system: H1975 organoids; assay: Organoid number after lentiviral miR-147b inhibition and/or osimertinib; type: cell-based, human
Description: as §3, §4

[9] = system: H1975 cells; assay: Cell viability of H1975 cells with HIF1A or EPAS1 knockdown or HIF1A A588T treated with osimertinib; type: cell-based, human; conditions: 3 days
Description: HIF1A and EPAS1 shRNAs and cDNA transfection. H1975 cells were seeded in a 6-well plate at 100,000 cells per well one day prior to transfection. A mixture of 2.5 μg pGFP-C-shLenti vector targeting HIF1A (OrGene, Cat #320380), EPAS1 (OriGene, Cat #TL315484), scrambled negative control (Cat #TR30021), lentiviral vector targeting HIF1A mutantA588T (OrGene, Cat #RC402571), control vector and 7.5 μL of PureFection (System Biosciences, Cat #LV750A-1) were used for transfection. The transfected cells were selected and maintained in 0.5 μg/ml puromycin (for shRNAs) or 600 μg/ml neomycin (for HIF1A A5887) in DMEM containing with 10% FBS for 9 days. Then the stable cells were passaged into 96-well plate at 3,000 cells per well followed by treatment with 100 nM osimertinib for 3 days. hsa-HIF1A targeting sequences: shRNA 1: […] (SEQ ID NO: 892), shRNA 2: […] (SEQ ID NO: 893), shRNA 3: […] (SEQ ID NO: 894), shRNA 4: […] (SEQ ID NO: 895). hsa-EPAS1 targeting sequences: shRNA 1: […] (SEQ ID NO: 896), shRNA 2: […] (SEQ ID NO: 897), shRNA 3: […] (SEQ ID NO: 898), shRNA 4: […] (SEQ ID NO: 899).

**Q.** What does the source list for `COC(=O)CNC(=O)C(=O)OC` [DMOG, dimethyloxaloylglycine]?
**A.** pseudohypoxia gene levels reduced by miR-147b knockdown, on co-treatment with DMOG ([1]; H1975, 90 nM LNA miR-147b inhibitor + 10 μM DMOG): rescued significantly; expression of pseudohypoxia genes ([1]; H1975, single dose of 10 μM DMOG vs vehicle): upregulated expression; osimertinib-tolerance (fractional viability) on co-treatment with DMOG ([2]; osimertinib 25 nM, LNA-anti147b 90 nM, DMOG 10 μM): rescued reduced osimertinib-tolerance

**Q.** What does the source list for `O=c1c2ccccc2[nH]c(=S)n1CCN1CCC(=C(c2ccc(F)cc2)c2ccc(F)cc2)CC1` [R59949]?
**A.** pseudohypoxia gene levels reduced by LNA-miR-147b inhibitor, on co-treatment with R59949 ([1]; H1975 cells, 90 nM LNA miR-147b inhibitor + 30 μM R59949, three days): further inhibited; expression of pseudohypoxia genes ([1]; H1975 cells, single dose of 30 μM R59949 vs vehicle): downregulation

**Q.** For `COC(=O)CC(=O)OC` [DMM, dimethyl malonate], which “drug-tolerance to osimertinib (cell viability)” value [3] is on record?
**A.** The value was “promotes drug-tolerance; also recorded: effectively rescued”.

**Q.** How did the “decrease of IC50 for osimertinib / increase of sensitivity of drug-tolerant organoids to osimertinib, compared to scrambled control” value [4] turn out when “LNA miR-147b inhibitor: fluorescein-conjugated LNA anti-miR-147b, sequence AGCAGAAGCATTTCCGCACA (SEQ ID NO: 890), Cat #4100977-011 (LNA-modified, fluorescein conjugated, pattern and position not given here)” was run?
**A.** The value was 30 fold.

**Q.** And the “decrease of osimertinib-tolerance compared with control cells” value ([5]; 90 nM LNA miR-147b inhibitor on day 0 and day 2 + 25 nM osimertinib, day 8)?
**A.** Its value is 80%.

**Q.** And the “PDX organoids volume increase, as % of that in control cells with the single agent of osimertinib” value ([5]; LNA miR-147b inhibitor pretreatment + osimertinib, day 8 to day 14)?
**A.** Its value is “no more than 10%”.

**Q.** What about the “expression levels of pseudohypoxia genes” value ([1]; H1975 cells, 90 nM LNA miR-147b inhibitor, three days, vs scrambled control) of the same compound?
**A.** The value was “reduced expression levels”.

**Q.** What about the “osimertinib-tolerance (fractional viability)” value ([2]; osimertinib 25 nM + LNA-anti147b 90 nM) of the same compound?
**A.** Its value is “reduced osimertinib-tolerance”.

**Q.** With `COc1cc2ncnc(Nc3ccc(F)c(Cl)c3)c2cc1OCCCN1CCOCC1` [gefitinib] as the compound, how does the “frequency of colony formation” value [6] read?
**A.** The value was 3.6%±0.3.

**Q.** With `C=CC(=O)Nc1cc(Nc2nccc(-c3cn(C)c4ccccc34)n2)c(OC)cc1N(C)CCN(C)C` [osimertinib] as the compound, how does the “enhancement of drug-tolerance at the half-maximum inhibitory concentration (IC50) by enforced overexpression of miR-147b” value [7] read?
**A.** Its value is 60 fold.

**Q.** And the “decrease of size of the tumor organoids” value ([5]; 25 nM osimertinib on day 1 and 4, day 6)?
**A.** The value was 50%.

**Q.** And the “increase (recovery) of organoid size” value ([5]; 25 nM osimertinib on day 1 and 4, day 14)?
**A.** The value was 40%.

**Q.** What about the “decrease of total number of organoids compared with the control group” value [8] of the same compound?
**A.** Its value is “two-fold”.

**Q.** What about the “increase of drug-tolerance towards osimertinib upon overexpression of HIF1A A588T” value ([9]; 100 nM osimertinib) of the same compound?
**A.** Its value is “up to two-fold”.

**Q.** And the “increase of cell sensitivity towards osimertinib upon HIF1A knockdown” value ([9]; lentiviral shRNAs against HIF1A, 100 nM osimertinib)?
**A.** Its value is “up to 2.6 fold”.

**Q.** And the “drug sensitivity towards osimertinib upon HIF2A knockdown” value ([9]; lentiviral shRNAs against HIF2A/EPAS1, 100 nM osimertinib)?
**A.** Its value is “did not change”.
